Measurements: ChEMBL document CHEMBL1133882, “Benzyloxybenzaldehyde analogues as novel adenylyl cyclase activators” (Bioorg Med Chem Lett, 2001)

Tests used:
Assay type in all cases: functional
[1] = Ratio of cAMP-elevating activity relative to forskolin
[2] = biological target: Adenylate cyclase (Homo sapiens) (UniProt Q8NFM4+O60503+Q08828+P40145+O60266+O95622+O43306+Q08462+P51828); assay: Effect of compound on cellular c-AMP levels by activation of Adenylate cyclase
Rattus norvegicus = assay: In vitro inhibitory effect on neutrophil superoxide formation isolated from pentobarbital-anesthetized rats

Row | Compound | Ratio [1] | Activity (pM (2*10e6*cells)-1) [2] | IC50 (Rattus norvegicus) [µM]
1 | NC(=O)c1ccccc1OCc1ccccc1 | 0.24 | 0.29 | 19.8
2 | CN1CCN(CCCN2c3ccccc3Sc3ccc(C(F)(F)F)cc32)CC1 [TRIFLUOPERAZINE] | – | – | 14.7
3 | O=Cc1ccccc1OCc1ccccc1 | 1.1 | 1.3 | 15.6
4 | O=Cc1ccc(OCc2ccccc2)cc1 | 0.22 | 0.26 | 14.8
5 | C=C[C@@]1(C)CC(=O)[C@]2(O)[C@@]3(C)[C@@H](O)CCC(C)(C)[C@@H]3[C@H](O)[C@H](OC(C)=O)[C@@]2(C)O1 | 1 | < 1.23 | –
6 | O=Cc1cccc(OCc2ccccc2)c1 | 0.46 | 0.56 | > 30
7 | CC(=O)c1ccccc1OCc1ccccc1 | 0.22 | 0.26 | 12.8
